Results as given in patent US20240099214A1, “PLANT DEFENCE GENE EXPRESSION” (UPL Corporation Limited, priority 2021, published 2024).
“Also recorded” adds a separate entry of the source.

Assays:
[1] = test system: E3 Ubiquitin-protein ligase march3 (gene 2, Solyc01g079530.2); experiment: qRT-PCR expression of gene 2 in tomato leaves; assay type: in vivo, Tomato ecotype corbarino; parameters: key: relative expression normalized to a-tubulin housekeeping gene
Procedure: (§1) Tomato ecotype “corbarino” reported to be susceptible to TSWV infection was used in the experiment. Plants were grown in pots in a climatic chamber with a photoperiod of 16/8 hour at 25° C.
(§2) The viral strain (TSWV PV PV-0393) was utilized in the experiment. The virus was mechanically inoculated and propagated on tomato “corbarino”. The inoculum was prepared in an ice-cooled mortar grounding 1 gr of infected tomato tissue in 10 ml of Na-phosphate buffer 0.01M. The fresh prepared inoculum was stored in ice before use. Tomato plants at BBCH16 were dusted with Carborundum 600 mesh and selected leaves were rubbed with some droplets of inoculum. After 5 min. plants were sprayed with sterile water to remove the excess of inoculum and preserve the cell turgor.
(§3) Four treatments were compared: i) Mock inoculated; ii) TSWV; iii) 0.25% Laminarin; iv) 0.25% Laminarin+TSWV. In the last treatment the virus was inoculated 24 hrs after the laminarin application.
(§4) Total RNA was extracted from systemic infected tomato leaves by using the Quick-RNA Plant Kit (Zymo Research) following the manufacturer instructions. The extractions were carried out using three plants after 12 h, 24 h, 48 h, 72 h, 7 days after inoculation. Leaves were instantly frozen in liquid nitrogen after cutting to avoid any deterioration of the sample as well as any defense reaction. The RNA concentration was quantified by measuring the absorbance at 260 nm using a Nanodrop 2000 (Thermofisher). The purity of all of the RNA samples was assessed at an absorbance ratio of OD260/280 and OD260/230, while its structural integrity was checked by agarose gel electrophoresis. Only high-quality RNA with OD 260/280 and OD 260/230>2 was used for subsequent steps. Single-stranded cDNA was synthesized from 1 μg of total RNA using an iScript™ Select cDNA Synthesis Kit and random hexamers as primers (Bio-Rad, Milan, Italy), according to the manufacturer's instructions. Three biological replicates were created from the 3 leaves collected to test 15 genes. Alpha tubulin was used as reference gene.
(§5) qPCR reactions were performed with BioRad (Applied Biosystems, Foster City, CA, USA) using SYBR R Green. Each reaction was performed in 20 μl containing 10 μl of 2× Power SYBR Green PCR Master Mix (Life Technologies), 0.2-0.3 μM primers and cDNA samples diluted 1:20. Each qPCR reaction was performed in triplicate. Reactions were run using the cycling parameter described previously (Reid et al., 2006) and the qPCR data were analyzed by the Ct method (Pfaffl, 2001). In order to analyze the qPCR data, a-tubulin gene was used as housekeeping to determine the relative expression level of the other genes analyzed in this work. For the determination of qPCR efficiency of each primer pairs, a standard curve was performed using the following cDNA dilutions: 1:4, 1:16, 1:64; 1:256 and 1:1024. Every measurement was made in triplicate. The corresponding qPCR efficiencies (E) were calculated for every primer pair with the software 7300 System SDS software (Applied Biosystems, Foster City, CA, USA) according to the equation E=(10−1/slope−1)×100 (Rutledge and Stewart, 2008).
(§6) The significance of the differences between the gene expressions levels were compared by one-way ANOVA (p=0.01) and the means were separated by Tukey post-hoc test using SPSS ver.26 ([…]).

[2] = test system: Regulator of gene silencing (gene 14, AY642285.1); experiment: qRT-PCR expression of gene 14 in tomato leaves; assay type: in vivo, Tomato ecotype corbarino; parameters: key to RQ1 / RQ2 / RQ3 / RQ mean: relative expression normalized to a-tubulin housekeeping gene; details: for gene 14 expression compared to TSWV treatment: 48 hr; for gene 14 expression: 72 hr
Procedure: as §1, §2, §3, §4, §5, §6

[3] = Gene_14, 12 hr, treatment Laminarin
[4] = Gene_14, 12 hr, treatment Laminarin + virus
[5] = Gene_14, 24 hr, treatment Laminarin
[6] = Gene_14, 24 hr, treatment Laminarin + virus
[7] = Gene_14, 48 hr, treatment Laminarin
[8] = Gene_14, 48 hr, treatment Laminarin + virus
[9] = Gene_14, 72 hr, treatment Laminarin
[10] = Gene_14, 72 hr, treatment Laminarin + virus

Q: laminarin was tested. Which RQ1 ([1]; 12 hr, Laminarin + virus) did it give?
A: Its RQ1 is 13.056.

Q: What about the RQ2 ([1]; 12 hr, Laminarin + virus) of the same substance?
A: The RQ2 was 23.403.

Q: What about the RQ3 ([1]; 12 hr, Laminarin + virus) of the same substance?
A: Its RQ3 is 12.079.

Q: What about the RQ mean ([1]; 12 hr, Laminarin + virus) of the same substance?
A: The RQ mean was 16.179.

Q: And the RQ1 ([1]; 12 hr, Laminarin alone)?
A: Its RQ1 is 13.140.

Q: And the RQ2 ([1]; 12 hr, Laminarin alone)?
A: The RQ2 was 19.586.

Q: And the RQ3 ([1]; 12 hr, Laminarin alone)?
A: Its RQ3 is 10.706.

Q: And the RQ mean ([1]; 12 hr, Laminarin alone)?
A: The RQ mean was 14.477.

Q: What about the RQ1 ([1]; 24 hr, Laminarin + virus) of the same substance?
A: Its RQ1 is 11.700.

Q: And the RQ2 ([1]; 24 hr, Laminarin + virus)?
A: The RQ2 was 13.596.

Q: And the RQ3 ([1]; 24 hr, Laminarin + virus)?
A: Its RQ3 is 12.341.

Q: And the RQ mean ([1]; 24 hr, Laminarin + virus)?
A: Its RQ mean is 12.546.

Q: And the RQ1 ([1]; 24 hr, Laminarin alone)?
A: Its RQ1 is 13.152.

Q: And the RQ2 ([1]; 24 hr, Laminarin alone)?
A: The RQ2 was 13.329.

Q: And the RQ3 ([1]; 24 hr, Laminarin alone)?
A: The RQ3 was 14.033.

Q: And the RQ mean ([1]; 24 hr, Laminarin alone)?
A: Its RQ mean is 13.505.

Q: What about the RQ1 ([1]; 48 hr, Laminarin + virus) of the same substance?
A: Its RQ1 is 24.083.

Q: What about the RQ2 ([1]; 48 hr, Laminarin + virus) of the same substance?
A: The RQ2 was 18.519.

Q: And the RQ3 ([1]; 48 hr, Laminarin + virus)?
A: Its RQ3 is 21.352.

Q: What about the RQ mean ([1]; 48 hr, Laminarin + virus) of the same substance?
A: The RQ mean was 21.318.

Q: And the RQ1 ([1]; 48 hr, Laminarin alone)?
A: Its RQ1 is 27.467.

Q: What about the RQ2 ([1]; 48 hr, Laminarin alone) of the same substance?
A: Its RQ2 is 17.321.

Q: What about the RQ3 ([1]; 48 hr, Laminarin alone) of the same substance?
A: Its RQ3 is 23.298.

Q: What about the RQ mean ([1]; 48 hr, Laminarin alone) of the same substance?
A: The RQ mean was 22.695.

Q: What about the RQ1 ([1]; 72 hr, Laminarin + virus) of the same substance?
A: Its RQ1 is 28.726.

Q: What about the RQ2 ([1]; 72 hr, Laminarin + virus) of the same substance?
A: Its RQ2 is 29.558.

Q: What about the RQ3 ([1]; 72 hr, Laminarin + virus) of the same substance?
A: The RQ3 was 37.336.

Q: And the RQ mean ([1]; 72 hr, Laminarin + virus)?
A: Its RQ mean is 31.873.

Q: And the RQ1 ([1]; 72 hr, Laminarin alone)?
A: The RQ1 was 29.447.

Q: And the RQ2 ([1]; 72 hr, Laminarin alone)?
A: Its RQ2 is 23.000.

Q: What about the RQ3 ([1]; 72 hr, Laminarin alone) of the same substance?
A: The RQ3 was 53.007.

Q: What about the RQ mean ([1]; 72 hr, Laminarin alone) of the same substance?
A: The RQ mean was 35.151.

Q: What about the “gene 14 expression compared to TSWV treatment” value ([2]; 0.25% laminarin + TSWV inoculated 24 hrs later) of the same substance?
A: Its value is “inverted”.

Q: What about the “gene 14 expression compared to TSWV treatment” value ([2]; 0.25% laminarin alone) of the same substance?
A: The value was “inverted”.

Q: What about the “gene 14 expression” value ([2]; Laminarin alone) of the same substance?
A: Its value is “no clear overexpression; also recorded: down regulation”.

Q: What about the “gene 14 expression” value ([2]; laminarin with TSWV) of the same substance?
A: Its value is “down regulation”.

Q: And the RQ1 [2, 3]?
A: Its RQ1 is 12.337.

Q: And the RQ2 [2, 3]?
A: The RQ2 was 10.845.

Q: And the RQ3 [2, 3]?
A: Its RQ3 is 11.390.

Q: And the RQ mean [2, 3]?
A: Its RQ mean is 11.524.

Q: What about the RQ1 [2, 4] of the same substance?
A: Its RQ1 is 14.800.

Q: What about the RQ2 [2, 4] of the same substance?
A: The RQ2 was 14.769.

Q: And the RQ3 [2, 4]?
A: The RQ3 was 10.304.

Q: And the RQ mean [2, 4]?
A: Its RQ mean is 13.291.

Q: What about the RQ1 [2, 5] of the same substance?
A: Its RQ1 is 15.741.

Q: And the RQ2 [2, 5]?
A: Its RQ2 is 11.640.

Q: What about the RQ3 [2, 5] of the same substance?
A: Its RQ3 is 12.032.

Q: What about the RQ mean [2, 5] of the same substance?
A: The RQ mean was 13.138.

Q: And the RQ1 [2, 6]?
A: Its RQ1 is 10.995.

Q: What about the RQ2 [2, 6] of the same substance?
A: The RQ2 was 12.080.

Q: And the RQ3 [2, 6]?
A: Its RQ3 is 12.197.

Q: What about the RQ mean [2, 6] of the same substance?
A: The RQ mean was 11.758.

Q: What about the RQ1 [2, 7] of the same substance?
A: Its RQ1 is 0.3028.

Q: And the RQ2 [2, 7]?
A: Its RQ2 is 0.7177.

Q: What about the RQ3 [2, 7] of the same substance?
A: The RQ3 was 0.5353.

Q: And the RQ mean [2, 7]?
A: The RQ mean was 0.5186.

Q: And the RQ1 [2, 8]?
A: Its RQ1 is 0.5979.

Q: And the RQ2 [2, 8]?
A: Its RQ2 is 0.3384.

Q: What about the RQ3 [2, 8] of the same substance?
A: Its RQ3 is 0.4902.

Q: What about the RQ mean [2, 8] of the same substance?
A: Its RQ mean is 0.4755.

Q: What about the RQ1 [2, 9] of the same substance?
A: Its RQ1 is 0.2805.

Q: And the RQ2 [2, 9]?
A: Its RQ2 is 0.3706.

Q: What about the RQ3 [2, 9] of the same substance?
A: The RQ3 was 0.3064.

Q: And the RQ mean [2, 9]?
A: The RQ mean was 0.3192.

Q: What about the RQ1 [2, 10] of the same substance?
A: The RQ1 was 0.5857.

Q: What about the RQ2 [2, 10] of the same substance?
A: Its RQ2 is 0.5072.

Q: And the RQ3 [2, 10]?
A: Its RQ3 is 0.2692.

Q: What about the RQ mean [2, 10] of the same substance?
A: The RQ mean was 0.4540.
